# Experimental data: patent publication US12239640B2, “Use of miloxacin in preparation of medicines for treating and/or preventing diseases with T-type calcium channels as therapeutic target” (SOOCHOW UNIVERSITY, priority 2020, dated 2025)
# Columns and labels:
# [1] = test system: CFA-induced inflammatory pain model rats; assay: Facial pain threshold of CFA-induced inflammatory pain model rats (von Frey); type: in vivo, rat; settings: day 2 after CFA; for effect on facial pain threshold (mechanical hyperalgesia), CFA model: at 3 h
# Protocol: Adult healthy male SD rats weighed 200-250 g were used. Before the experiment, the animals were allowed to acclimate to the breeding environment for three days. The model was established by a routine laboratory method. CFA was injected subcutaneously into the rat's facial whisker pad at a dose of 20 μl/mouse. Individuals with hyperalgesia and swelling of […] on day 2 after CFA injection were used as the experimental subjects, that is, the rats in the experiment group. Before the behavioral test, the rats were housed in a plexiglass box on a wire mesh frame to acclimate to the environment for three consecutive days, for 1 h each time. Test method: The middle part of the whisker pad was stimulated with von Frey filament at 1 g. If there were 3 escapes in 5 consecutive stimulations, the response was positive. Then, the same operation was repeated with von Frey filament at a lower level of intensity. If there was no positive response, the middle part of the whisker pad was stimulated with von Frey filament at a higher level of intensity. The minimum intensity at which a positive response occurs is taken as the facial pain threshold, that is, the facial mechanical pain threshold. It can be seen that CFA induction can lower the facial pain threshold of rats. • 3. Effect of miloxacin on the facial pain threshold of CFA-induced inflammatory pain model rats: 27 rats with CFA-induced inflammation obtained by the above method were divided into three groups, each having 9 rats. On day 2 after CFA induction, 10 nmol miloxacin was locally injected into the trigeminal ganglion of rats in the first group, 5 nmol miloxacin was locally injected into the trigeminal ganglion of rats in the second group, and the corresponding solvent DMSO was locally injected into the trigeminal ganglion of rats in the third group. After 1 h, 3 h, 6 h, 12 h, 18 h, and 24 h, the facial pain threshold of each group was detected. […] Study on the analgesic mechanism of miloxacin in CFA-induced inflammatory pain model rats: On day 2 after CFA induction, 2 nmol TTA-P2 was locally injected into the trigeminal ganglion, and then 10 nmol miloxacin was locally injected into the trigeminal ganglion after 30 min, which was used as the TTA-P2 group. The other group was injected with the corresponding solvent DMSO, and then administered with 10 nmol miloxacin by local injection 30 min later, which was used as the solvent group. TTA-P2 is a T-type calcium channel blocker, and the solvent for TTA-P2 is DMSO.
# [2] = test system: CCI-ION model rats; assay: Facial pain threshold of trigeminal neuropathic pain (CCI-ION) model rats (von Frey); type: in vivo, rat; settings: day 14 after model; for effect on facial pain threshold (mechanical hyperalgesia), CCI-ION model: at 3 h
# Protocol: Adult healthy male SD rats weighed 200-250 g were used. Before the experiment, the animals were allowed to acclimate to the breeding environment for three days. The rats were anesthetized with 4% chloral hydrate at an injection dose of 1 ml/100 g body weight. The tongue of the anesthetized rat in a supine position was pulled out and to the right to expose the left side of the mouth. At the level of the left maxillary first molar, a longitudinal incision of about 1 cm was cut along the gingival edge of the buccal aspect, and the tissue was bluntly isolated, to carefully expose the infraorbital nerve. The proximal and distal ends of the infraorbital nerve were loosely ligated with 5-0 suture, where the distance between the two ligatures was about 2 mm, and the tension was moderate. […] The process was the same as that in Example 4. It can be seen that CCI-ION can lower the facial pain threshold of rats. • 2. Effect of miloxacin on the facial pain threshold of CCI-ION model rats: 27 CCI-ION model rats obtained by the above method were divided into three groups, each having 9 rats. On day 14 after the CCI-ION model was established, 10 nmol miloxacin was locally injected into the trigeminal ganglion of rats in the first group, 5 nmol miloxacin was locally injected into the trigeminal ganglion of rats in the second group, and the corresponding solvent DMSO was locally injected into the trigeminal ganglion of rats in the third group. After 1 h, 3 h, 6 h, 9 h, 12 h, and 24 h, the facial pain threshold of each group was detected. […] Study on the analgesic mechanism of miloxacin in CCI-ION model rats: On day 14 after the CCI-ION model was established, 2 nmol TTA-P2 was locally injected into the trigeminal ganglion, and then 10 nmol miloxacin was locally injected into the trigeminal ganglion 30 min later, which was used as the TTA-P2 group. The other group was injected with the corresponding solvent DMSO, and then administered with 10 nmol miloxacin by local injection 30 min later, which was used as the solvent group.
# [3] = target: T1, T-type calcium channel subtype Cav3.2 (Homo sapiens, UniProt O95180); assay: Whole-cell voltage clamp of Cav3.2 current in transfected HEK293 cells; type: cell-based
# T1 construct: expressed in transfected cells; host or cells: HEK293 cells
# T1 sequence (O95180 whole entry): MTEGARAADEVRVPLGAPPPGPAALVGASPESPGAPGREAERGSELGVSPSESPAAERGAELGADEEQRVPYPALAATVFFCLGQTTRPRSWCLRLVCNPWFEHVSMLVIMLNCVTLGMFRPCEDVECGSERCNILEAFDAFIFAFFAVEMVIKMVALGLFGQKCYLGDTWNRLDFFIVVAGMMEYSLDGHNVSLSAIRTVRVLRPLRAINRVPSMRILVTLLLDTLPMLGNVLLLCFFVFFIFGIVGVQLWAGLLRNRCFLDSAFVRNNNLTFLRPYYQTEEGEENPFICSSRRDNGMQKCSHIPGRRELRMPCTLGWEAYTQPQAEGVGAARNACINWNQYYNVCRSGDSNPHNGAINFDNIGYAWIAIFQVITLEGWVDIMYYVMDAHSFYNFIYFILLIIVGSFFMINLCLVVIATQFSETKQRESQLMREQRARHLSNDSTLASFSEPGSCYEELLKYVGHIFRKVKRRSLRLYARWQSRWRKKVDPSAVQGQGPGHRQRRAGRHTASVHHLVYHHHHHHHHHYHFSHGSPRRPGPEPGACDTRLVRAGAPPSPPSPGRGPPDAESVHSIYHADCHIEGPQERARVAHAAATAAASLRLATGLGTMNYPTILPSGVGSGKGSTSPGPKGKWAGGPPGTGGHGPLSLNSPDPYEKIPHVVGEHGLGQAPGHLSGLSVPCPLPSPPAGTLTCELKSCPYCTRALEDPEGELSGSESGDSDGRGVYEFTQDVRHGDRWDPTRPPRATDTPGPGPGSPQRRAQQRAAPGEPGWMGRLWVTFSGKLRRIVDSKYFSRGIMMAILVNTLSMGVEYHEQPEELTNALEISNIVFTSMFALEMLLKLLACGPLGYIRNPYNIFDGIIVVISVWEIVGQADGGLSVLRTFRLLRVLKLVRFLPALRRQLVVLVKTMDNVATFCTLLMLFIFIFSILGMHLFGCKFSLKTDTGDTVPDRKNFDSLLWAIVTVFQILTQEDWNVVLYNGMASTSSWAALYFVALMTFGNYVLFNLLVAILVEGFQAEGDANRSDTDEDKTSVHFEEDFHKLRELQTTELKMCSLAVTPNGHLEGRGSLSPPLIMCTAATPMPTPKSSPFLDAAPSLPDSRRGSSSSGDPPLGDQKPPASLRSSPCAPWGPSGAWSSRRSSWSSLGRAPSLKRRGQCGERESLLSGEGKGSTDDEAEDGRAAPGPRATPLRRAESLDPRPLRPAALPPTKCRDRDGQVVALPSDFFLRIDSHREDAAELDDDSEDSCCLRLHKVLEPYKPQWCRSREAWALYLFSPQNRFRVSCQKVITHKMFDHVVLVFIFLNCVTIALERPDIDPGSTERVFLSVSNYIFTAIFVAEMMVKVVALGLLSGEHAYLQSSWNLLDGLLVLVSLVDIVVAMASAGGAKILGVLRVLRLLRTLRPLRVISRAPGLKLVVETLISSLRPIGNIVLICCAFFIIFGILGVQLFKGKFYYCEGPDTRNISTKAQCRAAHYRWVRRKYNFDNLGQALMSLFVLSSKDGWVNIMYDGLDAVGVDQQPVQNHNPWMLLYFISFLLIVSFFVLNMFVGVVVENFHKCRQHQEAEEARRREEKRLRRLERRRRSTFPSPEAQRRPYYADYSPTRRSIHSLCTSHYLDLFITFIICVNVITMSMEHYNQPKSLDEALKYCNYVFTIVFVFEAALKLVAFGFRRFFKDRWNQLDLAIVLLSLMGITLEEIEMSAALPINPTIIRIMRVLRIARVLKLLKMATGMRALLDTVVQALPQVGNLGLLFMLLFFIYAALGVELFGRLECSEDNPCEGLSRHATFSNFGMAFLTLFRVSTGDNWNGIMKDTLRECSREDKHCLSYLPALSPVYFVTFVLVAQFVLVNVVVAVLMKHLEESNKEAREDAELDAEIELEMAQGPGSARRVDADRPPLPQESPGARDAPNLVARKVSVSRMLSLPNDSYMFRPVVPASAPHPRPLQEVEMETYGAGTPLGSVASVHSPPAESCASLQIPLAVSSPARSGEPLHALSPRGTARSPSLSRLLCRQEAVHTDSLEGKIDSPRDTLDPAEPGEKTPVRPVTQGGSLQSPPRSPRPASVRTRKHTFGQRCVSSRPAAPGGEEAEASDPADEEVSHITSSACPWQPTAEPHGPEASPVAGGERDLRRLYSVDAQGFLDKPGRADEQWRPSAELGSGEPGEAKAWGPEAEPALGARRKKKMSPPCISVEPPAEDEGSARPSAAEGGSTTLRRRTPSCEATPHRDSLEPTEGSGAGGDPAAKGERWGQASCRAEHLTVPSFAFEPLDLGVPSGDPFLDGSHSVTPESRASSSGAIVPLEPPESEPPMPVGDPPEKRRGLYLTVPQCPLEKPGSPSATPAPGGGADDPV
# Protocol: (§1) 1. Preparation before transfection: A flask of HEK293 cell culture was removed of the culture medium, and gently washed twice by adding 3 ml of a phosphate buffer. Then, the cells were digested by adding 1 ml of 0.25% trypsin, and pipetted by adding DMEM medium after 3-5 min to collect the cells. The cells were centrifuged at 1000 rpm for 5 min, and the supernatant was discarded. 5-10 ml of DMEM medium was added to suspend the cells. The cells were slowly pipetted again, then subcultured in a 35 mm petri dish covered with glass slides, and transfected after 24 h.
# (§2) 2. Transfection: The cells were transfected by liposome transfection, where the transfection reagent was Lipofectamine 3000, and the materials used: Cav3 plasmid 1.5 μg, transfection enhancement factor (TAG) 0.25 μg, and enhanced green fluorescent protein (EGFP) 0.1 μg. 48-72 h after transfection, the whole-cell patch clamp technique was used to record fluorescent HEK293 cells, with 9-12 cells per group.
# (§3) The base sequences of Cav3.1, Cav3.2 and Cav3.3 plasmids were verified by gene sequencing and confirmed by DNA Star sequence analysis and alignment software that they are respectively consistent with the sequence Nos. NM_198376.3 (Cav3.1), NM_021098.3 (Cav3.2) and NM_021096.4 (Cav3.3) published in the NCBI database.
# (§4) At room temperature, Multiclamp700B amplifier was used for whole-cell voltage clamp recording. The glass electrode was a drawn electrode, and the resistance of the electrode filled with intracellular fluid was 3-5 MΩ. DigiData1322A was converted into a digital signal in pClamp10.2 software. The series resistance compensation was 70-80%. The stimulating square wave was depolarized to −30 mV with a clamping voltage of −90 mV, and then returned to the clamping potential level. The current amplitude of the T-type calcium channel at this time was recorded.
# (§5) Internal pipette solution: 110 cesium chloride, 4 magnesium-ATP, 0.3 sodium-GTP, 25 HEPES, 10 EGTA. External pipette solution: 5 barium chloride, 140 tetraethylamine chloride, 5 cesium chloride, 0.5 magnesium chloride, 5.5 glucose, 10 HEPES. […]
# [4] = test system: T-type calcium channel; assay: T-type calcium channel current in acutely dissociated primary rat trigeminal ganglion neurons; type: cell-based
# Excerpt: Specifically, trigeminal ganglion neurons from adult male SD rats were acutely dissociated under the conditions of enzymatic hydrolysis of trigeminal ganglion neurons (Zhang Y et al., J Pineal Res, 2018, 64, e12476).
# The trigeminal ganglia of male SD rats weighed about 220 g were exposed after anesthesia. The bilateral trigeminal ganglia were taken by using microscopic dissecting forceps, removed of their fiber connections, and then immediately placed in ice-cold oxygenated DMEM medium. The trigeminal ganglion in the culture medium was transferred into 3 mg/ml collagenase digestion solution, cut into pieces with microscissors, and digested at 37° C. for 45 min, and then digested in 2 mg/ml trypsin digestion solution for another 15 min. After the above operations, the digestion was terminated by adding DMEM medium containing 10% fetal bovine serum. The cells were dispersed by repeatedly pipetting, and filtered through a 40 μm cell sieve. The resulting suspension was centrifuged at 800 rpm for 3 min. After centrifugation, the supernatant was discarded, and the cell pellet was resuspended in DMEM medium. After resuspension, the cell suspension was seeded on a cover glass pre-coated with polylysine in a 24-well culture plate, and placed in an incubator at 37° C. with 5% CO2 for later use.
# The process was the same as that in Example 1. […]
# [5] = target: T2, T-type calcium channel subtype Cav3.1 (Homo sapiens, UniProt O43497); assay: Whole-cell voltage clamp of Cav3.1 current in transfected HEK293 cells; type: cell-based
# T2 construct: expressed in transfected cells; host or cells: HEK293 cells
# T2 sequence (O43497 1-2171 isoform O43497-5): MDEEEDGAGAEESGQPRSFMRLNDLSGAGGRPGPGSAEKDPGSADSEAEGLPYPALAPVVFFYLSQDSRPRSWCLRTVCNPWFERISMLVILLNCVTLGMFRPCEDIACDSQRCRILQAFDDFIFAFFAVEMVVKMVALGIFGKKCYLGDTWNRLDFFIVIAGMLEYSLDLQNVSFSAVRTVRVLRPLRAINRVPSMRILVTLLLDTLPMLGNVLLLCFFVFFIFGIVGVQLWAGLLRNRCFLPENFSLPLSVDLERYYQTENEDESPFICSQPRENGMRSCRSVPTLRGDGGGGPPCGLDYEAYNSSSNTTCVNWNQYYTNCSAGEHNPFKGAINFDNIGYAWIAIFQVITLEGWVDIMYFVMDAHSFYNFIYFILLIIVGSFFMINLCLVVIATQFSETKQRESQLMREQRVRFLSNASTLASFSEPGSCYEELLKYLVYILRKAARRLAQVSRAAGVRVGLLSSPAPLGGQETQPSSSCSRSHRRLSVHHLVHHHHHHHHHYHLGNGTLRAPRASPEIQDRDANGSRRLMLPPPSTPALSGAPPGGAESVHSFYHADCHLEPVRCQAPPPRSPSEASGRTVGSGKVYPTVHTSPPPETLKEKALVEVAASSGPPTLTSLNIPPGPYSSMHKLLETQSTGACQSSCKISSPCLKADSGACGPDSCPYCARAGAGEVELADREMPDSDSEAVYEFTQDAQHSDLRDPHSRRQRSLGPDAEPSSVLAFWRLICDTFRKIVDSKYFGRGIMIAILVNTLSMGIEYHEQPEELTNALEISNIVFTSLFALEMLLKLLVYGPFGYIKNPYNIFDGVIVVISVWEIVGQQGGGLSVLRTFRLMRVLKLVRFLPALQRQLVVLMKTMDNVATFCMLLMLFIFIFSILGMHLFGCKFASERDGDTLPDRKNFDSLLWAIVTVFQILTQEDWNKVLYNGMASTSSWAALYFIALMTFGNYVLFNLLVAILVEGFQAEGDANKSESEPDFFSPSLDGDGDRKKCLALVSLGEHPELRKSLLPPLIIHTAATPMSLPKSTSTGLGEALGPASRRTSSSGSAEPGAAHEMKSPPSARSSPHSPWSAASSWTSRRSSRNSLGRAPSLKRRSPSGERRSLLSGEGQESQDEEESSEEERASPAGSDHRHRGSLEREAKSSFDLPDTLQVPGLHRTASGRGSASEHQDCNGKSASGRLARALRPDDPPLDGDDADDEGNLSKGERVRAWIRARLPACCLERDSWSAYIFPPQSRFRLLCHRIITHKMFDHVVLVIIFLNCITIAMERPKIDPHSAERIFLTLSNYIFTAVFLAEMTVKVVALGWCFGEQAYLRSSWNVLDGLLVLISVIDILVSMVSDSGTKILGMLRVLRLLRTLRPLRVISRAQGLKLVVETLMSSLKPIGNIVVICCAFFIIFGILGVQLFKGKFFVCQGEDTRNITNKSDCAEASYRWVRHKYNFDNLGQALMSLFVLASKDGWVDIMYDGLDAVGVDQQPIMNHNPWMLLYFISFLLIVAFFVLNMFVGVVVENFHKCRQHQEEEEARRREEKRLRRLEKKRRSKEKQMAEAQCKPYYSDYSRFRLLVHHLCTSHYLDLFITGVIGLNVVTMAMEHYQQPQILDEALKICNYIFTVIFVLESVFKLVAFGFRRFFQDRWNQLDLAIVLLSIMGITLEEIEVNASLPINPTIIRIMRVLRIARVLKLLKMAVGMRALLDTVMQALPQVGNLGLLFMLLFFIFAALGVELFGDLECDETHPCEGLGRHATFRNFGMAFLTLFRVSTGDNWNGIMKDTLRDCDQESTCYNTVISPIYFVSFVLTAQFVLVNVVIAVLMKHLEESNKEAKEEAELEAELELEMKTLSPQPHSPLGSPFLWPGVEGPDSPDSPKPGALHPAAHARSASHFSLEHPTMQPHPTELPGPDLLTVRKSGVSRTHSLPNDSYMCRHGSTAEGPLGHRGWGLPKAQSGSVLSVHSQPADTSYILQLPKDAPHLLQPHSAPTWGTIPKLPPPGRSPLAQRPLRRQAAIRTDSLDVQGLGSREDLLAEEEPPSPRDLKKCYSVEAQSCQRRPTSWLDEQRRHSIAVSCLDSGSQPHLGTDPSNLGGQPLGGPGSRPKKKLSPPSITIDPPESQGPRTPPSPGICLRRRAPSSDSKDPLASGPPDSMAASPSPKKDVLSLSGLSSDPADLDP
# Protocol: as §1, §2, §3, §4, §5
# [6] = test system: trigeminal ganglion neurons; assay: Firing of neuronal action potential in acutely dissociated rat trigeminal ganglion neurons (current clamp); type: cell-based; settings: 10 μM miloxacin, 180 pA for 1 sec; control 13.3±1.5
# Protocol: The process was the same as that in Example 2. At room temperature, Multiclamp 700B amplifier was used for whole-cell current clamp recording. A current of 180 pA was injected into the cell for 1 sec to stabilize the cell at −70 mV, and the frequency of the generated action potential was recorded. Internal pipette solution: 10 sodium chloride, 110 potassium chloride, 2 EGTA, 25 HEPES, 0.5 sodium-GTP, 4 magnesium-ATP. External pipette solution: 2 potassium chloride, 128 sodium chloride, 2 calcium chloride, 2 magnesium chloride, 30 glucose, 25 HEPES. The unit is mM, that is, millimoles/liter. 10 μM miloxacin was directly administered to the T-type calcium channel in the trigeminal ganglion neurons as the treatment group. The groups before miloxacin administration were used as control groups.
# [7] = test system: normal rats; assay: Facial pain threshold of normal rats (von Frey); type: in vivo, rat; settings: 10 nmol injected into trigeminal ganglion, vs. solvent group
# Protocol: Before the behavioral test, the rats were housed in a plexiglass box on a wire mesh frame to acclimate to the environment for three consecutive days, for 1 h each time. Test method: The middle part of the whisker pad was stimulated with von Frey filament at 1 g. If there were 3 escapes in 5 consecutive stimulations, the response was positive. Then, the same operation was repeated with von Frey filament at a lower level of intensity. If there was no positive response, the middle part of the whisker pad was stimulated with von Frey filament at a higher level of intensity. The minimum intensity at which a positive response occurs is taken as the facial pain threshold, that is, the facial mechanical pain threshold. • 1. Effect of miloxacin on the facial pain threshold of normal rats (without CFA induction): 20 normal rats were divided into two groups, each having 10 rats. The first group was a solvent group, and the second group was a treatment group. 10 nmol miloxacin was injected into the trigeminal ganglion of the second group of rats, and the corresponding solvent DMSO was injected into the trigeminal ganglion of the first group of rats.
# [8] = target: T3, T-type calcium channel subtype Cav3.3 (Homo sapiens, UniProt Q9P0X4); assay: Whole-cell voltage clamp of Cav3.3 current in transfected HEK293 cells; type: cell-based; settings: 10 μM miloxacin, step -90 mV to -30 mV
# T3 construct: expressed in transfected cells; host or cells: HEK293 cells
# Protocol: as §1
# as §2, with “group. […]” for “group.”
# At room temperature, Multiclamp700B amplifier was used for whole-cell voltage clamp recording. […] The current amplitude of the T-type calcium channel at this time was recorded. […]
# [9] = 2 nmol local injection into trigeminal ganglion
# [10] = 10 μM miloxacin, step -90 mV to -30 mV
# [11] = 5 nmol local injection into trigeminal ganglion
# [12] = 10 nmol local injection into trigeminal ganglion
# [13] = 10 nmol miloxacin 30 min after 2 nmol TTA-P2, trigeminal ganglion
SMILES,"effect of TTA-P2 on facial pain threshold, CFA model [1, 9]","effect of TTA-P2 on facial pain threshold, CCI-ION model [2, 9]","inactivation constant V1/2 of subtype Cav3.2, left shift ([3]; 10 μM miloxacin vs. control) [mV]","subtype Cav3.2 current reduced compared to control [3, 10] [%]",IC50 ([3]; dose-effect curve) [µM],T-type calcium channel current reduced compared to control ([4]; 10 μM miloxacin) [%],IC50 ([4]; dose-effect curve) [µM],"inactivation constant V1/2 of subtype Cav3.1, left shift ([5]; 10 μM miloxacin vs. control) [mV]","subtype Cav3.1 current reduced compared to control [5, 10] [%]",IC50 ([5]; dose-effect curve) [µM],action potential (number in a 1-sec stimulation course) [6],effect on facial pain threshold of normal rats [7],subtype Cav3.3 current reduced compared to control [8] [%],"effect on facial pain threshold (mechanical hyperalgesia), CFA model [1, 11]","effect on facial pain threshold (mechanical hyperalgesia), CFA model [1, 12]","effect of miloxacin after TTA-P2 on facial pain threshold, CFA model [1, 13]","effect on facial pain threshold (mechanical hyperalgesia), CCI-ION model [2, 11]","effect on facial pain threshold (mechanical hyperalgesia), CCI-ION model [2, 12]","effect of miloxacin after TTA-P2 on facial pain threshold, CCI-ION model [2, 13]"
"CC1(C)C[C@@H](CN2CCC(F)(CNC(=O)c3cc(Cl)cc(Cl)c3)CC2)CCO1 [TTA-P2, 3,5-dichloro-N-[[4-fluoro-1-[[(4S)-tetrahydro-2,2-dimethyl-2H-pyran-4-yl]methyl]-4-piperidine]methyl]benzamide]",can increase the facial pain threshold,can increase the facial pain threshold,,,,,,,,,,,,,,,,,
COn1cc(C(=O)O)c(=O)c2cc3c(cc21)OCO3 [miloxacin],,,8.5±0.3,57.2±3.3,8.2 ± 0.6,52.7±2.6,7.7 ± 0.6,6.5±0.7,49.6±2.9,6.5 ± 0.9,6.1±0.3,does not affect the facial pain threshold,2.1±0.7,significantly reversed mechanical hyperalgesia,significantly reversed mechanical hyperalgesia,does not further increase the facial pain threshold,significantly reversed mechanical hyperalgesia,significantly reversed mechanical hyperalgesia,does not further increase the facial pain threshold
